Where two headings read alike, the source gives them in different places.
Key:
[1] = molecular target: T1, human sex Hormone Binding Globulin (SHBG) (Homo sapiens, UniProt P04278); assay: Competitive steroid-binding assay for human SHBG; conditions: for relative binding affinity for human SHBG: rank order ethinylestradiol < 17β-estradiol < testosterone < 5α-dihydrotestosterone
T1 construct: Human SHBG was purified from transgenic mouse serum; made in house; host or cells: transgenic mouse (serum)
T1 sequence (P04278 30-402): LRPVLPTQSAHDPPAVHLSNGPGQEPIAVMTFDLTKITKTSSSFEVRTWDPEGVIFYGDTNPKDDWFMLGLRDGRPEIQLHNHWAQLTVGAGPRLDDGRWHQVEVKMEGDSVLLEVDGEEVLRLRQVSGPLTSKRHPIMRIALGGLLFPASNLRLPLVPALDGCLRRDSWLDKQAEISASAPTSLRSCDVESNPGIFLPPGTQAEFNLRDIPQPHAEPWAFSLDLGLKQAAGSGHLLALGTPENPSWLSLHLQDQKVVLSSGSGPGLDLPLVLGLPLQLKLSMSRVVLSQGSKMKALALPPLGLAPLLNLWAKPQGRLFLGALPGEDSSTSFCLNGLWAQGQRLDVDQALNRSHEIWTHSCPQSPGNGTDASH
Protocol: Human SHBG was treated for 30 min at room temperature with a dextran-coated charcoal (DCC) suspension in phosphate buffered saline (PBS) to remove any steroid ligand. After centrifugation (2,000×g for 10 min) to sediment the DCC, the supernatant containing the human SHBG was diluted in PBS to a concentration of 1 nM based on its steroid binding capacity.
The average amounts of [^3H]labeled ligands bound to SHBG at each concentration of competitor (B) were expressed as a percentage of the average amounts of [^3H]labeled ligands bound to SHBG in the absence of competitor (B0), and were plotted against the concentration of competitor in each assay tube.

four-day cyclic rats = assay: Antiovulatory bioassay after oral administration; format: in vivo, rat; conditions: for ED50: Rattus norvegicus, 96 h
Protocol: A bioassay method (modified according to De Visser et al., 1984, Arzneim. […].
Rats are spontaneously ovulating, polyestrous mammals. Generally, proestrus lasts for 12 to 14 hours, estrus for 25 to 27 hours, metestrus for 6 to 8 hours, and diestrus for 55 to 57 hours (Freeman, 1988, In: The Physiology of Reproduction, E Knobil and J Neill (eds). Raven Press, Ltd, New York, pp. 1893-1928). These stages of the estrous cycle can be classified based on the cell types present in daily vaginal smears (Schwartz, 1969, Recent Prog. Horm. Res. 25, 1-55).
The preovulatory period of the rat estrous cycle is characterized by ovarian follicular growth and enhanced estrogen secretion. In the four-day cyclic rat, peripheral plasma levels of E2 are basal through estrus. At the end of metestrus and extending through early diestrus, plasma levels of E2 begin to rise. This increase continues through diestrus and early proestrus to reach peak values and plateau by mid-proestrus. Subsequently, E2 levels fall rapidly, reaching basal values by the early morning hours of estrus. The rising estrogen levels from late metestrus to early proestrus exert a positive feedback effect on the hypothalamic-pituitary axis resulting in a luteinizing hormone (LH) surge on the afternoon of proestrus. The LH surge induces follicular rupture and the release of ova in the early morning hours of estrus. By early afternoon on the day of estrus, ova are present in the ampulla of the oviduct and are readily visualized under a dissecting microscope.
Progesterone or levonorgestrel administered subcutaneously on diestrus to four-day cyclic rats is known to inhibit ovulation and increased the estrous cycle length in a dose-dependent manner (Beattie and Corbin, 1975, Endocrinology 97, 885-890). It was shown that the progestational block of ovulation takes place predominately via the hypothalamic-pituitary axis.
Vaginal smears from female rats were obtained daily for two weeks to identify four-day cycling rats. Only four-day cyclic rats were used for the antiovulatory bioassay. […] Twice daily dosing continued for an additional 3 consecutive days. One day after the final dose (day 5), the rats were euthanized by CO2 asphyxiation at approximately 1 pm, and the number of ova per oviduct was determined and recorded. Group means were calculated for the number of ova per ovulated rat (both oviducts). The ratio of rats ovulating for each treatment group was compared to the ratio for the vehicle-treated rats.

[2] = system: ovariectomized adult rats; assay: Vaginal cornification bioassay after oral administration; format: in vivo, rat; conditions: 0.1 and 0.3 mg/kg/day po
Excerpt: Uterine weight increase in the rat is more commonly used as a measure of estrogenicity. […] In the early 1920s it was discovered that follicular fluid from the pig ovary contained a factor(s) that caused cornification/keratinization of the vaginal epithelium in the rat (Allen and Doisy, 1923, JAMA, 81, 819-821; Allen and Doisy, 1924, Am. J. Physiol., 69, 577-588). The so-called vaginal cornification response in rats subsequently provided a bioassay for testing estrogenicity. Vaginal epithelial cornification/keratinization in ovariectomized rats can be produced only by compounds considered to be true estrogens (Jones et al, 1973, Fert. Steril. 24, 284-291). […] Adult intact female CD rats were ovariectomized to induce estrogen deficiency. […] Castrate vaginal smears are indicative that complete ovariectomy was achieved. Treatment commenced following completion of the 7 days of smearing (day 0=first day of dosing). Animals were dosed, once daily for 7 consecutive days. Daily vaginal lavages continued to be obtained for 7 days after dosing was initiated in order to detect vaginal cornification, as an indication of an estrogenic response. A drop of vaginal washings was placed on a glass slide and examined by light microscopy to detect the presence or absence of cornified epithelial cells. Vaginal lavages were obtained prior to dosing on days 0-6 and prior to necropsy on day 7. […]

[3] = intravenous, two adult women, tritium labeled; cited from earlier work
[4] = molecular target: T2, rat uterine cytosol estrogen receptor (Rattus norvegicus, UniProt P06211); conditions: cited from earlier work
T2 construct: rat uterine cytosol estrogen receptor; host or cells: rat uterus (cytosol and nuclear fractions)
T2 sequence (P06211 1-600): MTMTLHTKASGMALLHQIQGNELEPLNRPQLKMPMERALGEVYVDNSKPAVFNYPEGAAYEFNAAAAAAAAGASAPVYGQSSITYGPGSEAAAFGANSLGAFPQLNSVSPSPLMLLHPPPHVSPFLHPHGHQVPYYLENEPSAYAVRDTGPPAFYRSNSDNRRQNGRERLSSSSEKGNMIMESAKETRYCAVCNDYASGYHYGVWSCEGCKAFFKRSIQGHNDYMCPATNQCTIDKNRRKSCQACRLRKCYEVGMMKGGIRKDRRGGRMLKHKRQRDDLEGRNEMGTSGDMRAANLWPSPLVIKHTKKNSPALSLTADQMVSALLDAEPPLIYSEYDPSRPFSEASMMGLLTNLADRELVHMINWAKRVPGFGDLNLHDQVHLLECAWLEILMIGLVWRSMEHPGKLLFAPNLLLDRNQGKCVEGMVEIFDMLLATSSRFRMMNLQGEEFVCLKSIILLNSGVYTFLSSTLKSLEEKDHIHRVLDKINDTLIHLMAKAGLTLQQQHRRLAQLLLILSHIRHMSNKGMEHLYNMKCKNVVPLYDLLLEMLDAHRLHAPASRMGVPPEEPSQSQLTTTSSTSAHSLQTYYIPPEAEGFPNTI

[5] = system: human breast cancer cells (MCF-7); conditions: MCF-7, long term tissue culture; cited from earlier work
[6] = molecular target: T3, rat uterine nuclear estrogen receptor (Rattus norvegicus, UniProt P06211); conditions: cited from earlier work
T3 construct: rat uterine cytosol estrogen receptor; host or cells: rat uterus (cytosol and nuclear fractions)
T3 sequence (P06211 1-600): T2 sequence (P06211 1-600)

immature rat uterus = conditions: subcutaneous, cited from earlier work
[7] = molecular target: T4, estrogen receptors in the human endometrium (Homo sapiens, UniProt P03372); conditions: Tseng et al. 1978; cited from earlier work
T4 construct: estrogen receptors in the human endometrium; host or cells: human endometrium (nuclei)
T4 sequence (P03372 1-595): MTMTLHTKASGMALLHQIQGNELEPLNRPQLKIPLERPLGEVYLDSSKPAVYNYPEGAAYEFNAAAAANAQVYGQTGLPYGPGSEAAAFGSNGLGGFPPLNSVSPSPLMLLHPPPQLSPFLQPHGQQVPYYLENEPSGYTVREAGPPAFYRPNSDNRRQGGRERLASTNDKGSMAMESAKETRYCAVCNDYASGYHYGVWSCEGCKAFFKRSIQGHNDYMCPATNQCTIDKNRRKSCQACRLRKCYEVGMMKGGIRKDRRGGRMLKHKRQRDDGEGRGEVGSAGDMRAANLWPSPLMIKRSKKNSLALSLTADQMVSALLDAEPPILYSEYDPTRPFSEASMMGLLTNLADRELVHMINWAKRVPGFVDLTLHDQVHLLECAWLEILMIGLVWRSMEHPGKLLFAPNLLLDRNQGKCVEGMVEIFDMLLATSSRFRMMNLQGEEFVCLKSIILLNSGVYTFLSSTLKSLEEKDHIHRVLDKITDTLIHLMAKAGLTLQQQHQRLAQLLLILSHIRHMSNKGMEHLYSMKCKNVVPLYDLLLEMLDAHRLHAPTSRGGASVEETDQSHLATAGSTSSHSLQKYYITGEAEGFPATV

nonpregnant ewes = conditions: intravenously administered; cited from earlier work
[8] = 30 μg/kg po twice daily for 4 days
[9] = 100 μg/kg po twice daily for 4 days
[10] = 300 μg/kg po twice daily for 4 days
[11] = 1000 μg/kg po twice daily for 4 days
[12] = 3000 μg/kg po twice daily for 4 days

| SMILES | relative binding affinity for human SHBG [1] | ovulation blocked (rats of 8) (four-day cyclic rats; [8]) | ovulation blocked (rats of 8) (four-day cyclic rats; [9]) | ovulation blocked (rats of 8) (four-day cyclic rats; [10]) | ovulation blocked (rats of 8) (four-day cyclic rats; [11]) | ovulation blocked (rats of 8) (four-day cyclic rats; [12]) | ED50 (four-day cyclic rats; po twice daily for 4 days) | further results |
| --- | --- | --- | --- | --- | --- | --- | --- | --- |
| C[C@]12CCC(=O)C[C@@H]1CC[C@@H]1[C@@H]2CC[C@]2(C)[C@@H](O)CC[C@@H]12 [5α-dihydrotestosterone, reference compound] | in this order, show an increased relative binding affinity |  |  |  |  |  |  |  |
| C[C@]12CC[C@@H]3c4ccc(O)cc4CC[C@H]3[C@@H]1CC[C@@H]2O [E2, 17β-estradiol, reference compound] |  | ineffective in inhibiting ovulation | 7 of 8 | 8 of 8 | 8 of 8 | 8 of 8 | 0.03 to 0.1 mg/kg |  |
| C#C[C@]1(O)CC[C@H]2[C@@H]3CCc4cc(O)ccc4[C@H]3CC[C@@]21C [EE, 17α-ethinyl estradiol, reference compound] |  |  |  |  |  |  | 0.01 mg/kg |  |
| C[C@]12CC[C@@H]3c4ccc(O)cc4CC[C@H]3[C@@H]1[C@@H](O)[C@@H](O)[C@@H]2O [estetrol, 1,3,5(10)-estratrien-3,15α,16α,17β-tetrol] | negligible | failed to inhibit ovulation | 2 of 8 | 5 of 8 | 7 of 8 | 8 of 8 | 0.182 mg/kg | onset of vaginal cornification (animals responding at days 1-3) [2]: as fast as in EE-treated animals; excretion [3]: rapidly and completely excreted in urine as the glucosiduronate; metabolism [3]: virtually no metabolism except for conjugation; binding to human SHBG ([1]; [3H]DHT as labeled ligand): does not bind at all; binding to human SHBG ([1]; [3H]estradiol as labeled ligand): does not bind at all; antiovulatory potency compared with E2 (four-day cyclic rats; po twice daily for 4 days): approximates the antiovulatory potency of E2; antiovulatory potency, times less potent than ethinylestradiol (four-day cyclic rats; po twice daily for 4 days): 18 times; relative binding affinity, 17β-estradiol = 100% [4]: 0.5%; agonistic potency relative to 17β-estradiol in cell proliferation [5]: 2%; relative binding affinity, 17β-estradiol = 100% [6]: 0.3%; uterotrophic activity (immature rat uterus; Holinka et al. 1979): very weak uterotrophic activity; uterotrophic activity (immature rat uterus; Holinka et al. 1980): very weak uterotrophic activity; relative binding, % of 17β-estradiol [7]: 1.5%; potency in uterine vasodilation, times less potent than estriol and 17β-estradiol (nonpregnant ewes): 15 to 30 times |
| C[C@]12CC[C@H]3[C@@H](CCC4=CC(=O)CC[C@@]43C)[C@@H]1CC[C@@H]2O [testosterone, reference compound] | in this order, show an increased relative binding affinity |  |  |  |  |  |  |  |

— patent publication US7732430B2, “Drug delivery system comprising a tetrahydroxilated estrogen for use in hormonal contraception” (Pantarhei Bioscience B.V., priority 2001, dated 2010)
